Structures can show the parent of a compound that is named as a salt.
Key:
M3 receptor = target: T1, M3 receptor (Homo sapiens, UniProt P20309); assay: DMR assay, antagonism of acetylcholine in HT-29 cells endogenously expressing the M3 receptor; type: cell-based; conditions: for IC50: DMR, acetylcholine 16 μM, 1 h pretreatment, time point 30 min; for antagonistic activity against the M3 receptor, in words: structure-activity comparison with parent compound
T1 construct: HT-29 cell model endogenously highly expressing the M3 receptor; endogenous in cells; host or cells: HT-29
T1 sequence (P20309 whole entry): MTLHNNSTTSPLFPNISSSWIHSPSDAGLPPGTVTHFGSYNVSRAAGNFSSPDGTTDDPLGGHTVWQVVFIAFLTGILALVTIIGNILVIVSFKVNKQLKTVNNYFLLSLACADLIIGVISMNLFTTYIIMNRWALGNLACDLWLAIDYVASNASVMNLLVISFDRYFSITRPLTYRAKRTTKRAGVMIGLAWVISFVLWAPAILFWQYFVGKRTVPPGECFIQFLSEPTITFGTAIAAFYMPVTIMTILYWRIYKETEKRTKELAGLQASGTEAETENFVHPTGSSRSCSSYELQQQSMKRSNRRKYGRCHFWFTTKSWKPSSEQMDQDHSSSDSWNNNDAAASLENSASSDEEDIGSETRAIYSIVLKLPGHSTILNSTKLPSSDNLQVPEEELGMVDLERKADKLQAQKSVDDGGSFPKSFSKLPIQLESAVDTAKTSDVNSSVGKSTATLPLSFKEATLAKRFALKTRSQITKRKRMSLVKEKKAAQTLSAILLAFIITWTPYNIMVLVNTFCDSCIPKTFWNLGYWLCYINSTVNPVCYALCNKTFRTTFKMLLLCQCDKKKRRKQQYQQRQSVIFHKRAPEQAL
Procedure: (§1) The present invention relates to the antagonistic activity of the compound against the muscarinic receptor, which is primarily assessed by a cell-level dynamic mass redistribution (DMR) assay method. All tests are carried out on Epic platform, wherein the target model of the muscarinic receptor M1 is the CHO-K1 ceil model stably transfecting the M1 receptor, the target model of M3 is the HT-29 cell model endogenously highly expressing the M3 receptor, and the selected probe molecule is acetylcholine. Tire probe molecule acetylcholine is dissolved in water, while all other compounds are dissolved in DMSO.
The inoculated cell plate is placed in a cell incubator for culture for 20 h until the cell growth and fusion degree reaches about 95%, and the activity assay is carried out. The culture medium is sucked from the cultured cells, the buffer salt specified by the test is added with a volume of 30 μL per orifice and is stabilized for 1 h. After the baseline is stable, a 2-min baseline is established, and different concentrations of compounds to be tested are added to test the cultured cells for 1 h.

M1 receptor = target: T2, M1 receptor (Homo sapiens, UniProt P11229); assay: DMR assay, antagonism of acetylcholine in CHO-K1 cells stably transfecting the M1 receptor; type: cell-based; conditions: for IC50: DMR, acetylcholine 1 μM, 1 h pretreatment, time point 5 min; for antagonistic activity against the M1 receptor, in words: structure-activity comparison with parent compound
T2 construct: expressed in transfected cells; host or cells: CHO-K1
T2 sequence (P11229 1-460): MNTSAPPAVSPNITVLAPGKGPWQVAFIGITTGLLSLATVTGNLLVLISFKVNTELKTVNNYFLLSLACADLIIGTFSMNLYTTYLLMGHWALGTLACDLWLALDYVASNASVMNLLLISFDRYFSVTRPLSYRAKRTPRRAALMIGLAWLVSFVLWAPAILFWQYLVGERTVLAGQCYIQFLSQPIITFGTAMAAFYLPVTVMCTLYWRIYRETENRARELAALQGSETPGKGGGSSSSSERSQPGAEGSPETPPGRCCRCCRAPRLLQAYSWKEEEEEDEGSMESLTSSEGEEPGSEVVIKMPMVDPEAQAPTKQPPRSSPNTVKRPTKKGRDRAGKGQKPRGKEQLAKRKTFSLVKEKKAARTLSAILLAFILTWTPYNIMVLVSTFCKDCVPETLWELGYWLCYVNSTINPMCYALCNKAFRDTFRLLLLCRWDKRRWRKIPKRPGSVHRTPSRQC
Procedure: as §1
The inoculated cell plate is placed in a cell incubator for culture for 12 h until the cell growth and fusion degree reaches about 95%, and the activity assay is carried out. The culture medium is sucked from the cultured ceils, the buffer salt specified by the test is added with a volume of 30 μL per orifice and is stabilized for 1 h. After the baseline is stable, a 2-min baseline is established, and different concentrations of compounds to be tested are added to test the cultured cells for 1 h. After the cells are pretreated with the compounds to be tested for 1 h, the 2-min baseline is re-established, and acetylcholine having a concentration of 1 μM is added to test the cultured cells for 1 h.

Row | IC50 (M3 receptor; HT-29 cells) [µM] | IC50 (M1 receptor; CHO-K1-M1 cells) [µM] | Molecule | also measured
1 | 0.371 ± 0.0678 | – | CCc1cccc(C(CC2CCCCN2C)c2cc(C(C)C)cc(C)c2O)c1 (stereo not shown) [II-16, 2-[2-(2-hydroxy-3-methyl-5-isopropylphenyl)-2-(3-ethylphenyl)-ethyl]-N-methylpiperidine] | –
2 | 0.149 ± 0.0395 | 0.129 ± 0.0298 | Cc1ccc(O)c(C(CC2CCCCN2C)c2ccc(Cl)cc2)c1 (stereo not shown) [II-14, 2-[2-(4-chlorophenyl)-2-(2-hydroxy-5-methylphenyl)ethyl]-N-methylpiperidine] | –
3 | 0.11 ± 0.0139 | 0.0732 ± 0.0125 | CCCc1ccc(O)c(C(CC2CCCCN2C)c2ccccc2)c1 (stereo not shown) [II-6] | –
4 | 0.0203 ± 0.0036 | 0.133 ± 0.0228 | CCCc1ccc(O)c(C(CC2CCCC[N+]2(C)C)c2ccccc2)c1 (stereo not shown) [I-6, 2-[2-(2-hydroxy-5-propyl-phenyl)-phenethyl]-N,N-dimethylpiperidine Bromide] | –
5 | 1.21 ± 0.12 | 3.34 ± 0.21 | CC(=O)Oc1ccc(C)cc1C(CC1CCCCN1C)c1ccccc1 (stereo not shown) [II-24, 2-[2-(2-acetategroup-5-methyl-phenyl)-phenethyl]-N-methylpiperidine] | antagonistic activity against the M1 receptor, in words (M1 receptor): the activity is greatly decreased; antagonistic activity against the M3 receptor, in words (M3 receptor): the activity is greatly decreased
6 | 0.62 ± 0.0494 | – | CCCCCOc1ccc(O)c(C(CC2CCCCN2C)c2ccccc2)c1 (stereo not shown) [II-12, 2-[2-(2-hydroxy-5-pentyloxy-phenyl)-phenethyl]-N-methylpiperidine] | –
7 | 0.32 ± 0.0414 | 0.0732 ± 0.0125 | COc1ccc(O)c(C(CC2CCCCN2C)c2ccccc2)c1 (stereo not shown) [II-9, 2-[2-(2-hydroxy-5-methoxy-phenyl)-phenethyl]-N-methylpiperidine] | –
8 | – | – | CCc1ccc(O)c(C(CC2CCCCN2C)c2ccccc2)c1 (stereo not shown) | DMR response signal of the compound itself (M1 receptor; CHO-K1-M1 cells, FIG. 1): almost zero; antagonistic activity against the M1 receptor, in words (M1 receptor): the highest
9 | 0.137 ± 0.0229 | 0.0745 ± 0.006 | Cc1ccc(O)c(C(CC2CCCN2C)c2ccccc2)c1 (stereo not shown) [II-19] | –
10 | 0.279 ± 0.128 | 0.295 ± 0.136 | Cc1ccc(O)c(C(CC2CCCC[N+]2(C)CCCOc2ccccc2)c2ccccc2)c1.[Br-] (racemic) [I-4a-PrOPh, 2-[2-(2-hydroxy-5-methyl-phenyl)-phenethyl]-N-methyl, N-phenoxypropyl Piperidine Bromide] | antagonistic activity against the M3 receptor, in words (M3 receptor): a significant decrease in activity
11 | 0.0188 ± 0.0023 | 0.02 ± 0.0023 | CCc1ccc(O)c(C(CC2CCCC[N+]2(C)C)c2ccccc2)c1 (stereo not shown) [I-5-I, 2-[2-(2-hydroxy-5-ethyl-phenyl)-phenethyl]-N,N-dimethylpiperidine Iodide] | –
12 | 0.0105 ± 0.0011 | 0.0456 ± 0.0078 | CCc1ccc(O)c(C(CC2CCCC[N+]2(C)C)c2ccccc2)c1 (stereo not shown) [I-5-Br, 2-[2-(2-hydroxy-5-ethyl-phenyl)-phenethyl]-N,N-dimethylpiperidine Bromide] | –
13 | 0.37 ± 0.159 | 0.19 ± 0.0358 | CN1CCCCC1CC(c1ccccc1)c1cc(O)ccc1O (stereo not shown) [II-11, 2-[2-(2,5-dihydroxy-phenyl)-phenethyl]-N-methylpiperidine] | –
14 | 0.69 ± 0.16 | 1.9 ± 0.5 | Cc1ccc(OC(=O)C(C)C)c(C(CC2CCCCN2C)c2ccccc2)c1 (stereo not shown) [II-23, 2-[2-(2-isobutyryl estergroup-5-methyl-phenyl)-phenethyl]-N-methylpiperidine] | antagonistic activity against the M1 receptor, in words (M1 receptor): the activity is greatly decreased; antagonistic activity against the M3 receptor, in words (M3 receptor): the activity is greatly decreased
15 | 0.0972 ± 0.0211 | 0.113 ± 0.0412 | C[N+]1(C)CCCCC1CC(c1ccccc1)c1ccc(F)cc1O (stereo not shown) [I-8, 2-[2-(2-hydroxy-4-fluorophenyl)-phenethyl]-N,N-dimethylpiperidine bromide] | –
16 | 0.16 ± 0.0203 | 0.1 ± 0.0102 | COc1ccc(O)c(C(CC2CCCC[N+]2(C)C)c2ccccc2)c1 (stereo not shown) [I-9, 2-[2-(2-hydroxy-5-methoxyphenyl)-phenethyl]-N,N-dimethylpiperidine Bromide] | –
17 | 0.112 ± 0.02 | 0.0651 ± 0.0117 | Cc1ccc(C(CC2CCCCN2C)c2cc(C)ccc2O)cc1 (stereo not shown) [II-15, 2-[2-(4-tolyl)-2-(2-hydroxy-5-methyl-phenyl)-ethyl]-N-methylpiperidine] | –
18 | 0.0207 ± 0.0036 | – | Cc1ccc(O)c(C(CC2CCCCN2C)c2ccsc2)c1 (stereo not shown) [II-22, 2-[2-(3-thienyl)-2-(2-hydroxy-5-methyl-phenyl)-ethyl]-N-methylpiperidine] | –
19 | – | – | CN1CCCCC1CC(c1ccccc1)c1ccccc1O (stereo not shown) [II-2a, 2-[2-(2-hydroxy-phenyl)phenethyl]-N-methylpiperidine] | DMR response signal of the compound itself (M3 receptor; HT-29 cells, FIG. 2): almost zero
20 | 0.249 ± 0.0098 | – | CN1CCCCC1CC(c1ccccc1)c1cc(C(F)(F)F)ccc1O (stereo not shown) [II-13, 2-[2-(2-hydroxy-5-trifluoromethyl-phenyl)-phenethyl]-N-methylpiperidine] | –

Row | Molecule | IC50 (M3 receptor; HT-29 cells) [µM] | IC50 (M1 receptor; CHO-K1-M1 cells) [µM] | also measured
21 | Cc1ccc(O)c(C(CC2CCCC[N+]2(C)C)c2ccccc2)c1 (stereo not shown) [I-4b-1-Br, 2-[2-(2-hydroxy-5-methyl-phenyl)-phenethyl]-N,N-dimethylpiperidine Bromide] | 0.0271 ± 0.0053 | 0.0475 ± 0.0135 | –
22 | 2-[2-(2-methyl p-toluenesulfonate group-5-methyl-phenyl)-phenethyl]-N,N-dimethylpiperidine Bromide [I-26] | 0.793 ± 0.0697 | – | –
23 | Cc1ccc(O)c(C(CC2CCCC[N+]2(C)C)c2ccccc2)c1 (stereo not shown) [I-4B-2-Br, 2-[2-(2-hydroxy-5-methyl-phenyl)-phenethyl]-N,N-dimethylpiperidine Bromide] | 0.217 ± 0.0379 | 0.157 ± 0.0616 | –
24 | C[N+]1(C)CCCCC1CC(c1ccccc1)c1cc(F)ccc1O (single isomer, unassigned) [I-10a, 2-[2-(2-hydroxy-5-fluorophenyl)-phenylethyl]-N,N-dimethylpiperidine bromide] | – | 0.0132 ± 0.0012 | –
25 | CN1CCCCC1CC(c1ccccc1O)c1ccccc1O (single isomer, unassigned) [II-3-1, 2-[2,2-bis(2-hydroxy-phenyl)-ethyl]-N-methylpiperidine] | 0.0154 ± 0.0029 | 0.0304 ± 0.0126 | –
26 | Cc1ccc(O)c(C(CC2CCCC[N+]2(C)C)c2ccccc2)c1 (stereo not shown) [I-4a-I, 2-[2-(2-hydroxy-5-methyl-phenyl)-phenethyl]-N,N-dimethylpiperidine Iodide] | 0.0093 ± 0.001 | 0.0138 ± 0.0015 | –
27 | CN1CCCCC1CC(c1ccccc1O)c1ccccc1O (single isomer, unassigned) [II-3-2, 2-[2,2-bis(2-hydroxy-phenyl)-ethyl]-N-methylpiperidine] | 0.0673 ± 0.0066 | 0.0534 ± 0.0162 | –
28 | CN1CCCCC1CC(c1ccccc1O)c1ccccc1O (stereo not shown) [I-3-Cl, 2-[2,2-bis(2-hydroxyphenyl)-ethyl]-N-methylpiperidine Hydrochloride] | 0.0662 ± 0.0518 | 0.402 ± 0.185 | –
29 | C[N+]1(C)CCCCC1CC(c1ccccc1)c1ccccc1O (stereo not shown) [I-2a-2-Br, 2-[2-(2-hydroxy-phenyl)-phenethyl]-N,N-dimethylpiperidine Bromide] | 0.0284 ± 0.0061 | 0.0338 ± 0.0086 | –
30 | Cc1ccc(O)c(C(CC2CCCC[N+]2(C)C)c2ccccc2)c1 (single isomer, unassigned) [I-4b-Br, 2-[2-(2-hydroxy-5-methyl-phenyl)-phenethyl]-N,N-dimethylpiperidine Bromide] | 0.0477 ± 0.0119 | 0.061 ± 0.0218 | –
31 | C[N+]1(C)CCCCC1CC(c1ccccc1)c1cc(F)ccc1O (stereo not shown) [I-10b-1, 2-[2-(2-hydroxy-5-fluorophenyl)-phenylethyl]-N,N-dimethylpiperidine bromide] | 0.0352 ± 0.0063 | – | –
32 | Cc1ccc(O)c(C(CC2CCCC[N+]2(C)C)c2ccccc2)c1 (stereo not shown) [I-4a-2-Br, 2-[2-(2-hydroxy-5-methyl-phenyl)-phenethyl]-N,N-dimethylpiperidine Bromide] | 1.21 ± 0.12 | 0.832 ± 0.132 | –
33 | C[N+]1(C)CCCCC1CC(c1ccccc1)c1cc(F)ccc1O (single isomer, unassigned) [I-10a-2, 2-[2-(2-hydroxy-5-fluorophenyl)-phenylethyl]-N,N-dimethylpiperidine bromide] | 0.0829 ± 0.0117 | – | –
34 | C[N+]1(C)CCCCC1CC(c1ccccc1)c1cc(F)ccc1O (single isomer, unassigned) [I-10b-2, 2-[2-(2-hydroxy-5-fluorophenyl)-phenylethyl]-N,N-dimethylpiperidine bromide] | 0.164 ± 0.0126 | – | –
35 | 2-[2-(2-hydroxy-5-fluorophenyl)-phenylethyl]-N,N-dimethylpiperidine bromide [I-10b] | 0.109 ± 0.0394 | – | –

Source: patent publication US11274079B2 (DALIAN INSTITUTE OF CHEMICAL PHYSICS, CHINESE ACADEMY OF …, priority 2018, dated 2022)
